Data from patent publication US5690906A (The Trustees of the University of Pennsylvania, priority 1995, dated 1997).
Read-outs that look alike come from different tables or passages of the source. Blank lines part the entries; values can stand above or below the compound they belong to.

Legend:
[1] = In-vivo biodistribution in rats; design: species or system rat; Brain uptake: unit not given here; settings: for Brain uptake: table; for tissue uptake at 2 min / tissue uptake at 0.5 h / tissue uptake at 1 h: rat
Protocol: In-vivo biodistribution studies were performed in rats^27 with the two hydroxylated radioligands: [^123 I]-7-OH-DPAT and [^123 I]-7-OH-PIPAT in rats. Concerning [^123 I]-7-OH-DPAT rats were killed either two minutes or thirty minutes post injection and the data are reported in Table 5. […] On the contrary, [^123 I]-7-OH-PIPAT presented a very high brain uptake: 11.812, 9,458 and 5.433% dose/gram of tissue at 2, 30 and 60 min. respectively (See Table 6). […] However, the brain regions, rich in D3 receptors such as Calleja island and olfactory tubercle need to be more deeply investigated.

[2] = molecular target: T1, D2 dopamine receptor (Rattus norvegicus, UniProt P61169); assay: Inhibition of [^125 I]NCQ298 binding to D2 dopamine receptors expressed in Sf9 cells; settings: for HC D2: Table 4, Hill coefficient
T1 construct: made in house; host or cells: Sf9 insect cells infected with recombinant baculovirus (AcMNPVrD2L or AcMNPVrD2S), membrane homogenates
T1 sequence (P61169 whole entry): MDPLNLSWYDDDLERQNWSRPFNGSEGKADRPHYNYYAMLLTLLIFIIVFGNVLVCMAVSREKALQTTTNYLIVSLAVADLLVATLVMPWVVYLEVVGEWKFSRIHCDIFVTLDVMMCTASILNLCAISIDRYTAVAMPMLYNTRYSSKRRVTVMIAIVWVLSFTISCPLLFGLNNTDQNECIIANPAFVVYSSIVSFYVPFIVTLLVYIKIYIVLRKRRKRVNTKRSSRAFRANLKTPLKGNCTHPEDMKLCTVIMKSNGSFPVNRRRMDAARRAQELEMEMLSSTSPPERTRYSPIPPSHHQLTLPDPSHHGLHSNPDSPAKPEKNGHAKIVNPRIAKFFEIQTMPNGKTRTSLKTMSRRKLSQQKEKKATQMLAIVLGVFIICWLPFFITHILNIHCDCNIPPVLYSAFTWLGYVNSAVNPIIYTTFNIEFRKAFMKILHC

[3] = molecular target: T2, D3 dopamine receptor (Rattus norvegicus, UniProt P19020); assay: Inhibition of [^125 I]NCQ298 binding to D3 dopamine receptors expressed in Sf9 cells; settings: for HC D3: Table 4, Hill coefficient; for Ratio D2/D3: Ki(D2)/Ki(D3)
T2 construct: made in house; host or cells: Sf9 insect cells infected with recombinant baculovirus AcMNPVrD3, membrane homogenates
T2 sequence (P19020 whole entry): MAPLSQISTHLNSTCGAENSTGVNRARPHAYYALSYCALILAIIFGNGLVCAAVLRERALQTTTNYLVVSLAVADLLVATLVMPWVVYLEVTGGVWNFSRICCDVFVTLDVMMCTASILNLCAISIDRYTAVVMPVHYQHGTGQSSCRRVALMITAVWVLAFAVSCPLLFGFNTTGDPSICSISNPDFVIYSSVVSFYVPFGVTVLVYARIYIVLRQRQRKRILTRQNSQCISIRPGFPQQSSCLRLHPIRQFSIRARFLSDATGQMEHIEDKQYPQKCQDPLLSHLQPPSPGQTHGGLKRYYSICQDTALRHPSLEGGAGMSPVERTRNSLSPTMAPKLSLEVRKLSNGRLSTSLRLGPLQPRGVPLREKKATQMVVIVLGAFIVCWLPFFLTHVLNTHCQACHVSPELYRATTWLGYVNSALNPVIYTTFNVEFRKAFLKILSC
Protocol: The construction of pVL1393-rD3 was previously described. […] An aliquot of membranes was used for radioligand binding.
Membranes from AcMNPV-rD3 infected Sf9 cells were prepared. […] Assays were incubated at 37° C. for 20 min. then filtered and washed as described above.

[4] = molecular target: D3 receptors (expressed in Sf9 cells) (Rattus norvegicus, UniProt P19020)
Sequence of D3 receptors (expressed in Sf9 cells) (P19020 whole entry): as above
Protocol: Plasmid DNA was isolated by alkaline dialysis and purified by CsCl density gradient centrifugation and overnight dialysis for transfection of Sf9 cells. […] A monolayer of Sf9 cells (approximately 2×10^6 cells/T25 plate) was cotransfected by calcium phosphate precipitation, with 1 mg of AcMNPV DNA (provided by Dr. Max Summers, Texas A&M University, College Station, Tex.) and 2 mg of recombinant transfer vector DNA. […] Putative recombinant viral plaques were chosen by visual screening for occlusion-negative plaques and used to infect 1×10^6 Sf9 cells in a 6-well plate (CoStar, Cambridge, Mass.). Four days after infection, cells were harvested and membranes were prepared. An aliquot of membranes was used for radioligand binding. […] The membrane homogenates of AcMNPVrD3 infected Sf9 cells were prepared as described. Briefly, the harvested cells were centrifuged, resuspended and homogenized in buffer containing 50 mM Tris, pH7.4, 150mM NaCl, 10 mM EDTA and a mixture of protease inhibitors (1 mg/ml aprotinin, 1 mg/ml leupeptin, 1 mg/ml soybean trypsin inhibitor, 10 mg/ml PMSF). The final pellets obtained were resuspended in the same buffer and kept at -20° C. for radioligand binding assays.
Binding assays were performed in glass tubes (12×75 mm) in a final volume of 0.2 ml. The buffer used for the dilution contained 50 mM Tris, pH 7.4, and the protease inhibitors mixture. […] The competition experiments were performed in the presence of 120 mM NaCl. […] After incubation for 30 min at 37° C. or 90 min at 25° C., the bound ligand was separated from the free ligand by filtration through glass fiber filters No. 25 (Schleicher & Schuell, Keene, N.H.) soaked with 0.2% protamine free base. The filters were then washed twice with 4 ml of ice-cold buffer (containing 50 mM Tris-HCl, pH 7.4) and the radioactivity on the filters was counted in a gamma counter (Packard 5000) with 70% efficiency.

[5] = molecular target: T3, 5-HT1A receptor (Rattus norvegicus, UniProt P19327); assay: Inhibition of [^3 H]-8-OH-DPAT binding to rat hippocampal membrane homogenates; settings: against [^3 H]-8-OH-DPAT, rat hippocampus membranes; read-out: K1 (inhibition constant)
T3 construct: from tissue; host or cells: rat hippocampus membrane homogenates
T3 sequence (P19327 1-422): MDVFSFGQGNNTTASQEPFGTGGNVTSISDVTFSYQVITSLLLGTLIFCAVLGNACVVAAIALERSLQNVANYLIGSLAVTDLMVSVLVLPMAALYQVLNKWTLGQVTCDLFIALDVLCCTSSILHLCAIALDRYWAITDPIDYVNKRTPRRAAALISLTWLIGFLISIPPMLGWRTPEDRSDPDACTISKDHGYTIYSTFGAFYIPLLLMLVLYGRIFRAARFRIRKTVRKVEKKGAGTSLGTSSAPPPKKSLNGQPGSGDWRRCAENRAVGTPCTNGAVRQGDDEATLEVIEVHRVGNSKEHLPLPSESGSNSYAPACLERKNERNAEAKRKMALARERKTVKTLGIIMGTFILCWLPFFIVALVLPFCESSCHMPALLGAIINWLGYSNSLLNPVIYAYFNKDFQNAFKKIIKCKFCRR
Protocol: The hippocampal homogenates were prepared in 100 volumes of ice-cold Tris-HCl buffer (50mM, pH 7.4) and centrifuged at 20,000 g for 20 minutes. […] The final pellets were resuspended in the Tris-buffer containing 2mM of MgCl2. […] The tubes were incubated at 37° C. for fifteen minutes and then terminated by vacuum filtration through glass filters (Schleicher & Schuell, No. 25, Keene, N.H.) soaked with 1% polyethylimine. […] Both Scatchard and competition experiments were analyzed using the iterative least-squarecurve fitting program LIGAND.

[6] = Table 4 and its discussion, [^125 I]-NCQ298 0.05 nM, 37° C., 20 min, read-out: Ki D2

SMILES: CCCN(CCC)C1CCc2ccc(O)c([123I])c2C1 (stereo not drawn) [[^123 I]-7-OH-DPAT, reference compound]
- Brain uptake ([1]; 2 min): 1.55 ± 0.21
- Brain uptake ([1]; 30 min): 0.54 ± 0.13
- tissue uptake at 2 min ([1]; in vivo, 2 min, read-out: Regional uptake, Cerebellum): 0.81 ± 0.14 %ID/g
- tissue uptake at 2 min ([1]; in vivo, 2 min, read-out: Regional uptake, Cortex): 1.1 ± 0.12 %ID/g
- tissue uptake at 2 min ([1]; in vivo, 2 min, read-out: Regional uptake, Hippocampus): 0.78 ± 0.09 %ID/g
- tissue uptake at 2 min ([1]; in vivo, 2 min, read-out: Regional uptake, Striatum): 0.85 ± 0.07 %ID/g
- tissue uptake at 0.5 h ([1]; in vivo, 30 min, read-out: Regional uptake, Cerebellum): 0.25 ± 0.09 %ID/g
- tissue uptake at 0.5 h ([1]; in vivo, 30 min, read-out: Regional uptake, Cortex): 0.29 ± 0.12 %ID/g
- tissue uptake at 0.5 h ([1]; in vivo, 30 min, read-out: Regional uptake, Hippocampus): 0.31 ± 0.07 %ID/g
- tissue uptake at 0.5 h ([1]; in vivo, 30 min, read-out: Regional uptake, Striatum): 0.31 ± 0.08 %ID/g
- brain washout ([1]; rats, brain): rapidly washed out of the brain
- regional uptake in the different area of the brain ([1]; rats, brain): no regional uptake was observed

- HC D2 [2]: 0.78
- Ki [2, 6]: 5880 ± 471 nM
- HC D3 [3]: 0.80
- Ratio D2/D3 ([3]; Table 4 and its discussion): 3.1
- Ki ([3]; Table 4 and its discussion, [^125 I]-NCQ298 0.1 nM, 37° C., 20 min, read-out: Ki D3): 1870 ± 224 nM
SMILES: COc1ccc2c(c1)CC(NCc1ccccc1)CC2 (stereo not drawn) [7-MeO-BAT, 7Methoxy-2-N-Benzylaminotetralin]

SMILES: CCCN(C/C=C/[123I])C1CCc2ccc(O)cc2C1 (stereo not drawn) [[^123 I]-7-OH-PIPAT]
- Blood uptake ([1]; 2 min): 2.621 ± 0.298
- Heart uptake ([1]; 2 min): 1.780 ± 0.231
- Kidney uptake ([1]; 2 min): 5.887 ± 1.088
- Liver uptake ([1]; 2 min): 9.687 ± 3.302
- Lung uptake ([1]; 2 min): 5.394 ± 0.589
- Muscle uptake ([1]; 2 min): 33.199 ± 11.64
- Skin uptake ([1]; 2 min): 8.816 ± 1.656
- Spleen uptake ([1]; 2 min): 0.449 ± 0.161
- Thyroid uptake ([1]; 2 min): 0.174 ± 0.012
- Brain uptake ([1]; 2 min): 2.612 ± 0.498
- Blood uptake ([1]; 30 min): 0.785 ± 0.089
- Heart uptake ([1]; 30 min): 0.203 ± 0.054
- Kidney uptake ([1]; 30 min): 0.978 ± 0.276
- Liver uptake ([1]; 30 min): 3.573 ± 0.569
- Lung uptake ([1]; 30 min): 0.768 ± 0.146
- Muscle uptake ([1]; 30 min): 23.546 ± 8.469
- Skin uptake ([1]; 30 min): 6.962 ± 0.362
- Spleen uptake ([1]; 30 min): 0.284 ± 0.011
- Thyroid uptake ([1]; 30 min): 0.045 ± 0.007
- Brain uptake ([1]; 30 min): 0.660 ± 0.096
- Blood uptake ([1]; 60 min): 0.742 ± 0.075
- Heart uptake ([1]; 60 min): 0.100 ± 0.010
- Kidney uptake ([1]; 60 min): 1.042 ± 0.114
- Liver uptake ([1]; 60 min): 2.335 ± 1.391
- Lung uptake ([1]; 60 min): 0.437 ± 0.038
- Muscle uptake ([1]; 60 min): 12.882 ± 3.927
- Skin uptake ([1]; 60 min): 6.148 ± 0.922
- Spleen uptake ([1]; 60 min): 0.180 ± 0.023
- Thyroid uptake ([1]; 60 min): 0.096 ± 0.067
- Brain uptake ([1]; 60 min): 0.321 ± 0.037
- tissue uptake at 2 min ([1]; brain, 2 min, read-out: brain uptake): 11.8 %ID/g
- tissue uptake at 1 h ([1]; brain, 60 min, read-out: brain uptake): 5.43 %ID/g
- tissue uptake at 2 min ([1]; cerebellum, 2 min, read-out: Regional uptake, Cerebellum): 1.61 ± 0.403 %ID/g
- tissue uptake at 0.5 h ([1]; cerebellum, 30 min, read-out: Regional uptake, Cerebellum): 0.379 ± 0.009 %ID/g
- tissue uptake at 1 h ([1]; cerebellum, 60 min, read-out: Regional uptake, Cerebellum): 0.215 ± 0.025 %ID/g
- tissue uptake at 2 min ([1]; cortex, 2 min, read-out: Regional uptake, Cortex): 2 ± 0.038 %ID/g
- tissue uptake at 0.5 h ([1]; cortex, 30 min, read-out: Regional uptake, Cortex): 0.265 ± 0.086 %ID/g
- tissue uptake at 1 h ([1]; cortex, 60 min, read-out: Regional uptake, Cortex): 0.206 ± 0.022 %ID/g
- tissue uptake at 2 min ([1]; hippocampus, 2 min, read-out: Regional uptake, Hippocampus): 1.63 ± 0.222 %ID/g
- tissue uptake at 0.5 h ([1]; hippocampus, 30 min, read-out: Regional uptake, Hippocampus): 0.261 ± 0.064 %ID/g
- tissue uptake at 1 h ([1]; hippocampus, 60 min, read-out: Regional uptake, Hippocampus): 0.216 ± 0.02 %ID/g
- tissue uptake at 2 min ([1]; hypothalamus, 2 min, read-out: Regional uptake, Hypothalamus): 1.83 ± 0.233 %ID/g
- tissue uptake at 0.5 h ([1]; hypothalamus, 30 min, read-out: Regional uptake, Hypothalamus): 0.251 ± 0.009 %ID/g
- tissue uptake at 1 h ([1]; hypothalamus, 60 min, read-out: Regional uptake, Hypothalamus): 0.254 ± 0.033 %ID/g
- tissue uptake at 2 min ([1]; rem, 2 min, read-out: Regional uptake, REM): 1.67 ± 0.224 %ID/g
- tissue uptake at 0.5 h ([1]; rem, 30 min, read-out: Regional uptake, REM): 0.281 ± 0.076 %ID/g
- tissue uptake at 1 h ([1]; rem, 60 min, read-out: Regional uptake, REM): 0.218 ± 0.025 %ID/g
- tissue uptake at 2 min ([1]; striatum, 2 min, read-out: Regional uptake, Striatum): 1.62 ± 0.236 %ID/g
- tissue uptake at 0.5 h ([1]; striatum, 30 min, read-out: Regional uptake, Striatum): 0.263 ± 0.08 %ID/g
- tissue uptake at 1 h ([1]; striatum, 60 min, read-out: Regional uptake, Striatum): 0.212 ± 0.029 %ID/g
- regional uptake in the different area of the brain ([1]; rats, brain): no regional uptake was observed

SMILES: CCCNC1CCc2ccc(O)cc2C1 (stereo not drawn) [7-OH-MPAT, 7Hydroxy-2-N-n-Propylaminotetralin]
- HC D2 [2]: 0.80
- Ki [2, 6]: 620 ± 124 nM
- Ki [3]: 3.25 ± 0.45 nM
- affinity / selectivity for the D3 receptor [3]: comparative affinity as 7-OH-DPAT for D3 receptors
- HC D3 [3]: 0.80
- Ratio D2/D3 ([3]; Table 4 and its discussion): 191

SMILES: C#CCN(CCC)C1CCc2ccc(O)cc2C1 (stereo not drawn) [7-OH-PPAT, 7Hydroxy-2-(-Propargyl-N-n-Propyl)-Aminotetralin]
- affinity for the D2 receptor [2]: three-fold less active than 7-OH-DPAT
- HC D2 [2]: 0.99
- Ki [2, 6]: 378 ± 45 nM
- Ki [3]: 9.2 ± 0.6 nM
- affinity / selectivity for the D3 receptor [3]: three-fold less active than 7-OH-DPAT
- HC D3 [3]: 0.80
- Ratio D2/D3 ([3]; Table 4 and its discussion): 41.1

SMILES: COC(=O)[C@@H]1[C@H]2C[C@H]3c4[nH]c5ccccc5c4CCN3C[C@@H]2CC[C@@H]1O [Yohimbine]
- Hill Co. ([4]; Table 3, [^125 I]trans-7-OH-PIPAT competition, 37° C., 120 mM NaCl): 0.97
- affinity for the D3 receptor ([4]; competition with [^125 I]trans-7-OH-PIPAT): moderate to low affinity
- Ki ([4]; ± SE, [^125 I]trans-7-OH-PIPAT 0.1-0.2 nM, 37° C., 120 mM NaCl): 2430 ± 146 nM

SMILES: CCCN(CCC)C1CCc2ccc(OC)cc2C1 (stereo not drawn) [7-MeO-DPAT, 7Methoxy-2-N,N-n-Dipropylaminotetralin]
- Ki [2]: 2170 ± 216 nM
- HC D2 [2]: 0.95
- Ki [3]: 280 ± 36 nM
- HC D3 [3]: 0.98
- Ratio D2/D3 ([3]; Table 4 and its discussion): 7.7

SMILES: CCCN(C/C=C/I)C1CCc2ccc(O)cc2C1 (stereo not drawn) [trans-7-OH-PIPAT]
- Ki ([2]; Table 2, ± SE, [^125 I]NCQ298, Sf9 cells, read-out: Ki D2): 265 ± 36 nM
- HC D2 [2]: 0.96
- Ki [2, 6]: 265 ± 48 nM

- Ki [5]: 17 ± 2.2 nM
SMILES: COc1cccc2c1CC(NC/C=C/I)CC2 (racemic) [(±)trans-8-OMe-IPAT, 8-Methoxy-2-(N-3'-iodo-2'-propenyl) aminotetralin]
